Assay results as given in patent US20160160234A1, “COMPOSITION FOR TRANSFERRING GENE TO CELL” (ISHIHARA SANGYO KAISHA, LTD., priority 2013, published 2016).

Columns and labels:
A549 cells [1] = test system: A549 cells
Protocol: A549 cells and NIH-3T3 cells, both of which are adherent cultured cells, were individually seeded in a 96-well plate at a cell density of 4×10^3 cells/well one day before transfection.
84 μL of a 10 mg/mL sericin (Wako Pure Chemical Industries, Ltd., trade name: Pure Sericin) aqueous solution was added to 6 μL of a ½% sorbitan sesquioleate (Nacalai Tesque, Inc.) ethanol solution, and the mixture was mixed by pipetting.
As a virus-derived envelope, a 47.8 HAU/μL inactivated HVJ envelope (GenomONE-CF: registered trademark, produced by Ishihara Sangyo Kaisha, Ltd.) suspension, which is derived from Sendai virus, was used in the experiment.
After 54 μL of PBS was added to 6 μL of the inactivated HVJ envelope suspension, 6 μL of a 2% Triton X-100 PBS solution was added thereto. The mixture was centrifuged at 4° C., 10,000 g for 5 minutes with a high-speed refrigerated microcentrifuge, thereby pelletting down the inactivated HVJ envelope. […] After 2.5 μL of the liquid mixture of the inactivated HVJ envelope and the pCMV-GL3 plasmid was transferred to each tube, 28 μL of a 1/20 mg/mL laminin (SIGMA) aqueous solution or water was individually added thereto, and each mixture was mixed by pipetting. […]

RAW264.7 cells = test: Luciferase gene expression after transfection with pCMV-GL3 plasmid (ONE-Glo Luciferase Assay System); type: cell-based
Protocol: Gene transfer using FuGENE HD transfection reagent (Roche) was performed as follows.
Gene transfer using Polyethylenimine Max (Polyscience) was performed as follows. 13.5 μL of water was added to 1.5 μL of 1 mg/mL Polyethylenimine Max (pH of 7, MW of 25,000).

K562 cells = test: as above; type: cell-based; conditions: Example 16, in combination with the composition of the present invention or Lipofectamine LTX&PLUS reagent
Protocol: (§1) The next day, whether gene transfer was achieved was confirmed by measuring the enzyme activity (relative value) of luciferase protein produced from the pCMV-GL3 plasmid by using ONE-Glo Luciferase Assay System (Promega).
K562 cells, which are suspension cultured cells, were seeded in a 96-well plate at a cell density of 2×10^4 cells/well on the day of transfection.
154 μL of a 15 mg/mL sericin PBS solution was added to 11 μL of a ½% sorbitan sesquioleate (Nacalai Tesque, Inc.) ethanol solution, and the mixture was mixed by pipetting.
48 μL of the prepared solution above was added to 40 μL of a 1/10 mg/mL pCMV-GL3 plasmid solution, and the mixture was mixed by pipetting. 20 μL of a 1 mg/mL protamine sulfate PBS solution was then added to prepare a test composition (prepared for each kind of cells; total of three tubes). The test composition was added at 15 μL/well to the cell culture media.
Gene transfer using Lipofectamine LTX&PLUS reagent (Invitrogen) was performed as follows. 0.7 μL of a 1 mg/mL pCMV-GL3 plasmid solution and 0.7 μL of a PLUS reagent were added to 140 μL of Opti-MEM I Reduced Serum Medium (Gibco), and the mixture was allowed to stand for 5 minutes. 2.8 μL of Lipofectamine LTX reagent was further added thereto, and the mixture was allowed to stand for 25 minutes, after which it was added at 20 μL/well to the cell culture media. […]

NIH-3T3 cells = test: as above; type: cell-based
Protocol: NIH-3T3 cells, which are adherent cultured cells, were seeded in a 96-well plate at a cell density of 4×10^3 cells/well one day before transfection.
16.8 μL of a 5 mg/mL sericin PBS solution was added to 1.2 μL of a ¼% sorbitan sesquioleate (Nacalai Tesque, Inc.) ethanol solution, and the mixture was mixed by pipetting.
16.8 μL of a 5 mg/mL sericin PBS solution was added to 1.2 μL of a ¼% sorbitan monooleate (SIGMA) ethanol solution, and the mixture was mixed by pipetting.
0.6 μL of a ⅕% L-α-dioleoyl phosphatidylethanolamine (Wako Pure Chemical Industries, Ltd.; hereinafter referred to as “DOPE”) ethanol solution or 0.6 μL of ethanol was individually added to 0.6 μL of a ⅕% cardiolipin (SIGMA) ethanol solution. 16.8 μL of a 5 mg/mL sericin PBS solution was further added to each mixture, and each of the resulting mixtures was mixed by pipetting.
15 μL of a 1/10 mg/mL pCMV-GL3 plasmid solution was added to 18 μL of each of the above prepared solutions, and each mixture was mixed by pipetting. 7.5 μL of a 1 mg/mL protamine sulfate PBS solution was then added to each of the resulting mixtures, thereby preparing test compositions. Each of these test compositions was added at 15 μL/well to the cell culture media.
11.2 μL of ¼, ½, 3, 5, 20, 30, or 50 mg/mL sericin PBS solution or PBS was individually added to 0.8 μL of a ½% sorbitan sesquioleate (Nacalai Tesque, Inc.) ethanol solution, and each mixture was mixed by pipetting.
10 μL of a 1/10 mg/mL pCMV-GL3 plasmid solution was added to 12 μL of each of the prepared solutions above, and each mixture was mixed by pipetting.

Jurkat cells = test: as above; conditions: Example 12, lipid ethanol solutions ¼% or ⅕%, 5 mg/mL sericin, 1 mg/mL protamine sulfate, 15 μL/well, next day
Protocol: Jurkat cells, which are suspension cultured cells, were seeded in a 96-well plate at a cell density of 4×10^4 cells/well on the day of transfection.
280 μL of a 15 mg/mL sericin (Wako Pure Chemical Industries, Ltd., trade name: Pure Sericin) PBS solution was added to 20 μL of a ½% sorbitan sesquioleate (Nacalai Tesque, Inc.) ethanol solution, and the mixture was mixed by pipetting.
The inactivated HVJ envelope suspension was diluted 2-fold, 4-fold, 8-fold, 16-fold, and 32-fold with PBS. 8 μL of a 0.3% Triton X-100 PBS solution was added to 4 μL of each of these diluted, inactivated HVJ envelope suspensions, and each mixture was centrifuged at 4° C., 10,000 g for 5 minutes with a high-speed refrigerated microcentrifuge, thereby pelleting down the inactivated HVJ envelope. […] 4 μL of PBS was added to 12.5 μL of each of the individual HVJ envelope suspensions containing the plasmid or to a 1/10 mg/mL pCMV-GL3 plasmid solution, and 20 μL of the liquid mixture of sorbitan sesquioleate and sericin prepared in advance was further added to each mixture. After each of the resulting mixtures was mixed by pipetting, 6.25 μL of a 1 mg/mL protamine sulfate PBS solution was added to each mixture, thereby preparing test compositions. Each of these test compositions was added at 9.5 μL/well to the cell culture medium.
as §1
112 μL of a 15 mg/mL sericin (Wako Pure Chemical Industries, Ltd., trade name: Pure Sericin) PBS solution was added to 8 μL of a ½% sorbitan sesquioleate (Nacalai Tesque, Inc.) ethanol solution, and the mixture was mixed by pipetting.
10 μL of a 0.2% Triton X-100 PBS solution was added to 1 μL of the inactivated HVJ envelope suspension, and the mixture was centrifuged at 4° C., 10,000 g for 5 minutes with a high-speed refrigerated microcentrifuge, thereby pelletting down the inactivated HVJ envelope. […]

THP-1 cells = test: Gene transfer of pTurboGFP-N plasmid observed with a fluorescence microscope; type: cell-based; conditions: Example 1, 5 μL/well, next day, FIG. 3
A549 cells [2] = test: as above; type: cell-based; conditions: Example 1, 5 μL/well, next day, FIG. 3
[3] = Example 16, in combination with the composition of the present invention or Lipofectamine LTX&PLUS reagent
[4] = Example 12, lipid ethanol solutions ¼% or ⅕%, 5 mg/mL sericin, 1 mg/mL protamine sulfate, 15 μL/well, next day
[5] = Example 11, pCMV-GL3 in inactivated HVJ envelope (component F) in all compositions, 8.1 μL/well, next day

O=C(NCCCNc1nc(Nc2cccc(NC(=O)N3CCCC3)c2)ncc1I)c1cccs1 [compound A, N-[3-[[5-iodo-4-[[3-[(2-thienylcarbonyl)amino]propyl]amino]-2-pyrimidinyl]amino]phenyl]-1-pyrrolidinecarboxamide]
improvement in gene expression by compound A used in combination with a gene transfer vector (A549 cells [1]; [3]): improvement in the gene expression was confirmed
improvement in gene expression by compound A used in combination with a gene transfer vector (RAW264.7 cells; [3]): improvement in the gene expression was confirmed
improvement in gene expression by compound A used in combination with a gene transfer vector (RAW264.7 cells; Example 17, in combination with the composition of the present invention, Lipofectamine LTX&PLUS reagent, FuGENE HD transfection reagent, or Polyethylenimine Max): improvement in gene expression was confirmed
improvement in gene expression by compound A used in combination with a gene transfer vector (K562 cells): improvement in the gene expression was confirmed

Sericin
Luciferase gene expression level (relative value) (NIH-3T3 cells; Example 13, Sericin concentration 0 mg/mL (PBS), with ½% sorbitan sesquioleate and 1 mg/mL protamine sulfate, 15 μL/well): 346
Luciferase gene expression level (relative value) (NIH-3T3 cells; Example 13, Sericin concentration 3 mg/mL, with ½% sorbitan sesquioleate and 1 mg/mL protamine sulfate, 15 μL/well): 761,785
Luciferase gene expression level (relative value) (NIH-3T3 cells; Example 13, Sericin concentration 5 mg/mL, with ½% sorbitan sesquioleate and 1 mg/mL protamine sulfate, 15 μL/well): 729,703
Luciferase gene expression level (relative value) (NIH-3T3 cells; Example 13, Sericin concentration 20 mg/mL, with ½% sorbitan sesquioleate and 1 mg/mL protamine sulfate, 15 μL/well): 762,661
Luciferase gene expression level (relative value) (NIH-3T3 cells; Example 13, Sericin concentration 30 mg/mL, with ½% sorbitan sesquioleate and 1 mg/mL protamine sulfate, 15 μL/well): 458,447
Luciferase gene expression level (relative value) (NIH-3T3 cells; Example 13, Sericin concentration 50 mg/mL, with ½% sorbitan sesquioleate and 1 mg/mL protamine sulfate, 15 μL/well): 24,194
Luciferase gene expression level (relative value) (NIH-3T3 cells; Example 13, Sericin concentration ¼ mg/mL, with ½% sorbitan sesquioleate and 1 mg/mL protamine sulfate, 15 μL/well): 77,190
Luciferase gene expression level (relative value) (NIH-3T3 cells; Example 13, Sericin concentration ½ mg/mL, with ½% sorbitan sesquioleate and 1 mg/mL protamine sulfate, 15 μL/well): 285,344
gene expression compared with the case where sericin was not used (NIH-3T3 cells; Example 13, ¼ to 50 mg/mL sericin): gene expression was improved

cardiolipin
Luciferase gene expression level (relative value) (NIH-3T3 cells; [4]): makes it possible to introduce a gene
Luciferase gene expression level (relative value) (Jurkat cells): makes it possible to introduce a gene

protamine sulfate [component C]
gene transfer (green fluorescent protein TurboGFP observed with a fluorescence microscope) (THP-1 cells): Almost no gene transfer
Luciferase gene expression level (relative value) (NIH-3T3 cells; [5]): gene transfer was observed
Luciferase gene expression level (relative value) (A549 cells [1]; [5]): gene transfer was observed
gene transfer (green fluorescent protein TurboGFP observed with a fluorescence microscope) (A549 cells [2]): Almost no gene transfer

sorbitan monooleate
Luciferase gene expression level (relative value) (NIH-3T3 cells; [4]): makes it possible to introduce a gene
Luciferase gene expression level (relative value) (Jurkat cells): makes it possible to introduce a gene

sorbitan sesquioleate
Luciferase gene expression level (relative value) (NIH-3T3 cells; [4]): makes it possible to introduce a gene
gene expression (NIH-3T3 cells; Example 14, 1/50 to 5/2% sorbitan sesquioleate): gene expression was observed
Luciferase gene expression level (relative value) (NIH-3T3 cells; Example 14, Sorbitan sesquioleate concentration 1/2%, with 10 mg/mL sericin and 1 mg/mL protamine sulfate, 15 μL/well): 1,349,057
Luciferase gene expression level (relative value) (NIH-3T3 cells; Example 14, Sorbitan sesquioleate concentration 1/10%, with 10 mg/mL sericin and 1 mg/mL protamine sulfate, 15 μL/well): 291,463
Luciferase gene expression level (relative value) (NIH-3T3 cells; Example 14, Sorbitan sesquioleate concentration 1/50%, with 10 mg/mL sericin and 1 mg/mL protamine sulfate, 15 μL/well): 887
Luciferase gene expression level (relative value) (NIH-3T3 cells; Example 14, Sorbitan sesquioleate concentration 5/2%, with 10 mg/mL sericin and 1 mg/mL protamine sulfate, 15 μL/well): 425,949
Luciferase gene expression level (relative value) (Jurkat cells): makes it possible to introduce a gene
